Reference: the supplement of paper PMC4862054

The compounds below were run on Hs578T (assay: normalised viability (% of control), CellTiter-Blue; higher = more viable cells (about 100 = DMSO control)). Conditions: 1000 nM; incubation time: 72 h.
Summary of the method: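 Compound dissolved in 5 µl medium was pre-loaded into 384-well plates, and breast cancer cell lines in 20 µl suspension were seeded on top and incubated 72 h. After adding 2.5 µl CellTiter-Blue reagent for 2 h at 37 °C, fluorescence was read at 560/590 nm. Plates were normalised to vehicle (100) and a positive kill control (0), with Z'-factor quality control. Each value is normalised viability at a single listed concentration from the series.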

Compared with `C=C(c1ccc(C(=O)O)cc1)c1cc2c(cc1C)C(C)(C)CCC2(C)C` [Bexarotene], `CCC1(c2ccc(N)cc2)CCC(=O)NC1=O` (stereo unspecified) [Aminoglutethimide] is higher in normalised viability: 105% for the first, 113% for the second.

First: Clc1ccc(Nc2nnc(Cc3ccncc3)c3ccccc23)cc1 [Vatalanib]
Second: CCN(CCCOc1ccc2c(Nc3cc(CC(=O)Nc4cccc(F)c4)[nH]n3)ncnc2c1)CCOP(=O)(O)O [Barasertib]
The normalised viability of the first is higher: 104% for the first, 70.7% for the second.

Compared with `NCC(=O)CCC(=O)O` [Aminolevulinic acid], `NC(=O)Nc1cc(-c2cccc(F)c2)sc1C(=O)N[C@H]1CCCNC1` [AZD 7762] is lower in normalised viability: 104% for the first, 27.3% for the second.

`CO[C@H]1/C=C\C=C(/C)C(=O)NC2=CC(=O)C(NCCN(C)C)=C(C[C@@H](C)C[C@H](OC)[C@H](O)[C@@H](C)/C=C(\C)[C@@H]1OC(N)=O)C2=O` [Alvespimycin] gave a normalised viability of 40.1%.

Same assay, conditions: 10000 nM; incubation time: 72 h

Compared with `O=C1CCC(N2C(=O)c3ccccc3C2=O)C(=O)N1` (stereo unspecified) [Thalidomide], `CCC1(c2ccc(N)cc2)CCC(=O)NC1=O` (stereo unspecified) [Aminoglutethimide] is lower in normalised viability: 106% for the first, 89.8% for the second.

Compared with `C=C(c1ccc(C(=O)O)cc1)c1cc2c(cc1C)C(C)(C)CCC2(C)C` [Bexarotene], `Clc1ccc(Nc2nnc(Cc3ccncc3)c3ccccc23)cc1` [Vatalanib] is higher in normalised viability: 75.3% for the first, 84.7% for the second.

In the case of `NCC(=O)CCC(=O)O` [Aminolevulinic acid], the normalised viability was 96.3%.

The compounds below were run on CAL-120 (assay: normalised response (% of control), CellTox Green; higher = less cell death (100 = DMSO, 0 = benzethonium chloride kill control)). Conditions: incubation time: 72 h.
Summary of the method: (§1)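 Breast cancer cell lines, seeded at 20 µl suspension per well, were incubated for 72 h in 384-well plates containing compound at 5 concentrations. These concentrations rose in 10-fold steps over a 10,000-fold range set for each compound. CellTox Green fluorescence (485/520 nm) was read, then CellTiter-Glo luminescence after 10 min at room temperature, and each plate was normalised to 0.1 % DMSO (100) and a positive kill control (0). Values are normalised signals, each at one concentration.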

Going from `O=C1CCC(N2C(=O)c3ccccc3C2=O)C(=O)N1` (stereo unspecified) [Thalidomide] (10000 nM) to `Cc1ccc(C(=O)N(CCCN)[C@@H](c2oc3cc(Cl)ccc3c(=O)c2Cc2ccccc2)C(C)C)cc1` (100 nM), the normalised response falls from 104% to 98.8%.

Compared with `O=P1(NCCCl)OCCCN1CCCl` (stereo unspecified) [Ifosfamide] (10000 nM), `COc1cc([C@@H]2c3cc4c(cc3[C@@H](O[C@@H]3O[C@@H]5CO[C@@H](C)O[C@H]5[C@H](O)[C@H]3O)[C@H]3COC(=O)[C@H]23)OCO4)cc(OC)c1O` [Etoposide] (1000 nM) is lower in normalised response: 100% for the first, 95.7% for the second.

`N[C@@H](CSC(c1ccccc1)(c1ccccc1)c1ccccc1)C(=O)O` [S-trityl-L-cysteine] (40000 nM) and `CN(C)/N=N/c1[nH]cnc1C(N)=O` [Dacarbazine] (10000 nM) are the same in normalised response: 105% for the first, 105% for the second.

These compounds were tested on HCC1599 in the same assay as above. Conditions: incubation time: 72 h.
Summary of the method: as §1

Compared with `O=C1CCC(N2C(=O)c3ccccc3C2=O)C(=O)N1` (stereo unspecified) [Thalidomide] (10000 nM), `Cc1ccc(C(=O)N(CCCN)[C@@H](c2oc3cc(Cl)ccc3c(=O)c2Cc2ccccc2)C(C)C)cc1` (100 nM) is lower in normalised response: 99.9% for the first, 99.7% for the second.

Going from `O=P1(NCCCl)OCCCN1CCCl` (stereo unspecified) [Ifosfamide] (10000 nM) to `COc1cc([C@@H]2c3cc4c(cc3[C@@H](O[C@@H]3O[C@@H]5CO[C@@H](C)O[C@H]5[C@H](O)[C@H]3O)[C@H]3COC(=O)[C@H]23)OCO4)cc(OC)c1O` [Etoposide] (1000 nM), the normalised response rises from 93.6% to 97%.

First: N[C@@H](CSC(c1ccccc1)(c1ccccc1)c1ccccc1)C(=O)O [S-trityl-L-cysteine] (40000 nM)
Second: CN(C)/N=N/c1[nH]cnc1C(N)=O [Dacarbazine] (10000 nM)
The normalised response of the first is higher: 114% for the first, 104% for the second.

These compounds were tested on MDA-MB-231 in the same assay as above. Conditions: incubation time: 72 h.
Summary of the method: as §1

Going from `O=C1CCC(N2C(=O)c3ccccc3C2=O)C(=O)N1` (stereo unspecified) [Thalidomide] (10000 nM) to `Cc1ccc(C(=O)N(CCCN)[C@@H](c2oc3cc(Cl)ccc3c(=O)c2Cc2ccccc2)C(C)C)cc1` (100 nM), the normalised response falls from 115% to 87.5%.

Compared with `O=P1(NCCCl)OCCCN1CCCl` (stereo unspecified) [Ifosfamide] (10000 nM), `N[C@@H](CSC(c1ccccc1)(c1ccccc1)c1ccccc1)C(=O)O` [S-trityl-L-cysteine] (40000 nM) is higher in normalised response: 89% for the first, 122% for the second.

`CN(C)/N=N/c1[nH]cnc1C(N)=O` [Dacarbazine] (10000 nM) showed a normalised response of 101%.

These compounds were tested on HCC1937 in the same assay as above. Conditions: incubation time: 72 h.
Summary of the method: as §1

Going from `O=C1CCC(N2C(=O)c3ccccc3C2=O)C(=O)N1` (stereo unspecified) [Thalidomide] (10000 nM) to `Cc1ccc(C(=O)N(CCCN)[C@@H](c2oc3cc(Cl)ccc3c(=O)c2Cc2ccccc2)C(C)C)cc1` (100 nM), the normalised response falls from 97.8% to 84.6%.

Each compound was assayed on HDQ-P1 in the same assay as above. Conditions: incubation time: 72 h.
Summary of the method: as §1

Compared with `O=P1(NCCCl)OCCCN1CCCl` (stereo unspecified) [Ifosfamide] (10000 nM), `COc1cc([C@@H]2c3cc4c(cc3[C@@H](O[C@@H]3O[C@@H]5CO[C@@H](C)O[C@H]5[C@H](O)[C@H]3O)[C@H]3COC(=O)[C@H]23)OCO4)cc(OC)c1O` [Etoposide] (1000 nM) is lower in normalised response: 101% for the first, 95.6% for the second.

Going from `N[C@@H](CSC(c1ccccc1)(c1ccccc1)c1ccccc1)C(=O)O` [S-trityl-L-cysteine] (40000 nM) to `CN(C)/N=N/c1[nH]cnc1C(N)=O` [Dacarbazine] (10000 nM), the normalised response falls from 115% to 111%.

The compounds below were run on MDA-MB-436 in the same assay as above. Conditions: incubation time: 72 h.
Summary of the method: as §1

First: O=P1(NCCCl)OCCCN1CCCl (stereo unspecified) [Ifosfamide] (10000 nM)
Second: Cc1ccc(C(=O)N(CCCN)[C@@H](c2oc3cc(Cl)ccc3c(=O)c2Cc2ccccc2)C(C)C)cc1 (100 nM)
The normalised response of the first is lower: 82.4% for the first, 105% for the second.

Going from `COc1cc([C@@H]2c3cc4c(cc3[C@@H](O[C@@H]3O[C@@H]5CO[C@@H](C)O[C@H]5[C@H](O)[C@H]3O)[C@H]3COC(=O)[C@H]23)OCO4)cc(OC)c1O` [Etoposide] (1000 nM) to `CN(C)/N=N/c1[nH]cnc1C(N)=O` [Dacarbazine] (10000 nM), the normalised response rises from 13.2% to 91.3%.

For `N[C@@H](CSC(c1ccccc1)(c1ccccc1)c1ccccc1)C(=O)O` [S-trityl-L-cysteine] (40000 nM), the normalised response was 107%.

These compounds were tested on DU-4475 in the same assay as above. Conditions: incubation time: 72 h.
Summary of the method: as §1

Compared with `O=C1CCC(N2C(=O)c3ccccc3C2=O)C(=O)N1` (stereo unspecified) [Thalidomide] (10000 nM), `Cc1ccc(C(=O)N(CCCN)[C@@H](c2oc3cc(Cl)ccc3c(=O)c2Cc2ccccc2)C(C)C)cc1` (100 nM) is lower in normalised response: 99.1% for the first, 95.1% for the second.

Going from `O=P1(NCCCl)OCCCN1CCCl` (stereo unspecified) [Ifosfamide] (10000 nM) to `COc1cc([C@@H]2c3cc4c(cc3[C@@H](O[C@@H]3O[C@@H]5CO[C@@H](C)O[C@H]5[C@H](O)[C@H]3O)[C@H]3COC(=O)[C@H]23)OCO4)cc(OC)c1O` [Etoposide] (1000 nM), the normalised response falls from 94.9% to 93.7%.

First: N[C@@H](CSC(c1ccccc1)(c1ccccc1)c1ccccc1)C(=O)O [S-trityl-L-cysteine] (40000 nM)
Second: CN(C)/N=N/c1[nH]cnc1C(N)=O [Dacarbazine] (10000 nM)
The normalised response of the first is higher: 103% for the first, 98.9% for the second.
